Assays:
Type in all cases: cell-based
A. niger 16404 = test: Minimum Inhibitory Concentration (MIC) evaluation, broth dilution; settings: Mueller-Hinton broth, two-fold dilutions, about 35° C. for about 24 hours, visible growth
Method: (§1) In this evaluation, nutrient broth solutions were made with different concentrations of the test compounds, and then all the solutions were spiked with the same concentration of test organism. Growth was indicated by a solution becoming hazy after 24 hours of incubation time. The highest dilution without observable growth is the Minimal Inhibitory Concentration (MIC).
(§2) The following procedure was adopted from the Manual of Clinical Microbiology, 2nd Ed. published by the American Society for Microbiology, ISBN 0-914826-00-X.
(§3) Prepare and sterilize Mueller-Hinton Broth (MH broth) (Fluka) per the manufacturer's instructions (dissolve 23 grams in one liter water and autoclave at 121° C. for 15 minutes minimum).
(§4) The stock antimicrobial solution is diluted (in MH broth) to twice the highest final test concentration desired. Sterile 13×100 mm screw-capped culture tubes are used. Two-fold dilutions are made directly in the tubes. To the first tube is added 2 mL of the working solution of antimicrobial agent. To each remaining tube is added 1 mL of broth. Using aseptic technique, an amount of 1 mL is transferred from the first tube to the second tube and is thoroughly mixed. After thorough mixing, 1 mL is transferred from the second tube to the third tube. This process is repeated through the second to last tube, from which 1 mL is removed and discarded. The final tube receives no antimicrobial agent and serves as a growth control.
(§5) Buffered saline (3.5 g/L phosphoric acid in a 0.9% NaCl solution, pH adjusted to 7.2 with 50 wt. % aqueous NaOH, sterilized by autoclave).
(§6) The organisms are preferably lyophilized Microbiologics E^power E7 microorganisms (mean assay value of between 10 million and 100 million colony forming units or equivalent concentration). The final concentrations of the microorganism in the inoculum should be in the order of 10^6-10^7 cfu/mL.
(§7) 1. Allow unopened vial of microorganism pellets to equilibrate to room temperature.
(§8) 2. Warm 1 tube of 10 mL buffered saline per organism used to about 35-37° C.
(§9) 3. Using sterile forceps, transfer 2 pellets to the saline and return unused pellets to storage.
(§10) 4. Incubate the hydrated material at about 35-37° C. for about 30 minutes.
(§11) 5. Vortex the vials until homogeneous.
(§12) 6. Add 1.0 ml of the diluted culture suspension to each of the previously prepared tubes containing the preservative compositions. The final concentration of preservative is now one-half of the original concentration in each tube.
(§13) All tubes were incubated at about 35° C. for about 24 hours. The tubes were then examined for visible signs of bacterial growth.
(§14) The MIC values from Table 5 were then used to calculate the Fractional Inhibitory Concentration Index (FICI) (sometimes called the Synergy Index) of GCM and GCP versus the various individual test organisms using the following equation. FICI=(MICa/MICA)+(MICb/MICB)

P. aeruginosa 9027 = test: as above; settings: Mueller-Hinton broth, two-fold dilutions, about 35° C. for about 24 hours, visible growth
Method: as §1, §2, §3, §4, §5, §6, §7, §8, §9, §10, §11, §12, §13, §14

S. aureus 6538 = test: as above; settings: Mueller-Hinton broth, two-fold dilutions, about 35° C. for about 24 hours, visible growth
Method: as §1, §2, §3, §4, §5, §6, §7, §8, §9, §10, §11, §12, §13, §14

Aspergillus niger = test: Preservative challenge test in cleanser base, plate count; settings: inoculum about 1×10^5 to 1×10^6 cfu/mL, about 22° C.; for Day-7 Plate Count, AN: 7 days after challenge; for Day-14 Plate Count, AN: 14 days after challenge
Method: (§15) Several 200-gram samples of a cleanser base were admixed with a variety of preservative compositions, and challenged with selected bacteria and fungi (Escherichia coli, Pseudomonas aeruginosa, Staphylococcus aureus, Aspergillus niger, and Candida albicans) according to the following procedure:
(§16) About 0.5 mL of an aqueous suspension containing about 1×10^6 to about 2×10^7 colony forming units-per-milliliter (cfu/mL) of Aspergillus niger in a pH 7.2 phosphate buffer was transferred to a tube containing about 9.5 mL of a sample of a cleanser base composition to provide an inoculum level of about 1×10^5 to about 1×10^6 cfu/mL. The same procedure was used to challenge samples of the cleanser base with Candida albicans and with a mixed culture of Escherichia coli, Pseudomonas aeruginosa, and Staphylococcus aureus, at about the same inoculum levels. The challenged samples were stored at an ambient room temperature of about 22° C. At 7 days and 14 days after challenge, aliquots from each sample were diluted according to the following procedure: about 1 mL of each challenged sample was aseptically transferred into a tube containing about 9 mL of Dey/Engley (D/E) neutralizing broth with thorough mixing to provide a dilution ratio of about 1:10. About […] of each of the 1:10 diluted samples was then aseptically transferred into separate tubes, each tube containing about 9 mL of sterile buffered saline solution, (3.5 g/L phosphoric acid in 0.9 wt. % NaCl solution, adjusted to pH 7.2 with 50 wt. % aqueous sodium hydroxide), with thorough mixing, to provide a dilution ratio of about 1:1000.
(§17) Finally, each of the 1:10 diluted samples and each of the 1:1000 diluted samples were plated according to the following procedure: about 1 mL of each of the diluted samples was plated with Letheen agar (bacteria samples) or Sabouraud dextrose agar (yeast and mold samples). The Letheen agar plates were incubated at 35±2° C. for about 48 hours (about 2 days) in an inverted position, and the resulting microbial colonies were counted. The Sabouraud dextrose agar plates were incubated at 25±2° C. for about 120 hours (about 5 days) in an upright position and the resulting microbial colonies were counted.
(§18) The formulations of the cleanser base and the D/E Neutralizing Broth used in these evaluations are provided in Table 1 and Table 2, respectively.

Candida albicans = test: as above; settings: inoculum about 1×10^5 to 1×10^6 cfu/mL, about 22° C.; for Day-7 Plate Count, CA: 7 days after challenge; for Day-14 Plate Count, CA: 14 days after challenge, TN = too numerous to count
Method: as §15, §16, §17, §18

Staphylococcus aureus = test: as above; settings: inoculum about 1×10^5 to 1×10^6 cfu/mL, about 22° C.; for Day-7 Plate Count, SA: 7 days after challenge; for Day-14 Plate Count, SA: 14 days after challenge
Method: as §15, §16, §17, §18

Escherichia coli = test: as above; settings: inoculum about 1×10^5 to 1×10^6 cfu/mL, about 22° C., TN = too numerous to count; for Day-7 Plate Count, EC: 7 days after challenge; for Day-14 Plate Count, EC: 14 days after challenge
Method: as §15, §16, §17, §18

Pseudomonas aeruginosa = test: as above; settings: inoculum about 1×10^5 to 1×10^6 cfu/mL, about 22° C., TN = too numerous to count; for Day-7 Plate Count, PA: 7 days after challenge; for Day-14 Plate Count, PA: 14 days after challenge
Method: as §15, §16, §17, §18

Row | MIC Values, A. niger (A. niger 16404) | MIC Values, P. aeruginosa (P. aeruginosa 9027) | MIC Values, S. aureus (S. aureus 6538) | Structure (SMILES) | Day-7 Plate Count, AN (Aspergillus niger) | Day-14 Plate Count, AN (Aspergillus niger) | Day-7 Plate Count, CA (Candida albicans) | Day-7 Plate Count, SA (Staphylococcus aureus) | Day-14 Plate Count, SA (Staphylococcus aureus) | Day-14 Plate Count, CA (Candida albicans) | Day-7 Plate Count, EC (Escherichia coli) | Day-14 Plate Count, EC (Escherichia coli) | Day-7 Plate Count, PA (Pseudomonas aeruginosa) | Day-14 Plate Count, PA (Pseudomonas aeruginosa)
1 | 1.0% | 0.9% | 0.9% | OCCc1ccccc1 [PEA, phenethyl alcohol] | – | – | – | – | – | – | – | – | – | –
2 | 2.0% | 1.0% | 1.0% | CCCCCCCC(=O)OCC(O)CO (centres unmarked) [GC, glyceryl caprylate] | – | – | – | – | – | – | – | – | – | –
3 | – | – | – | O=C([O-])c1ccccc1.[Na+] [Ex. E, sodium benzoate] | 1500 cfu | 3500 cfu | 336500 cfu | 9000 cfu | 500 cfu | – | – | – | – | –
4 | – | – | – | CCCCCCCC(=O)OCC(O)CO (centres unmarked) [Ex. C, glyceryl caprylate] | 1000 cfu | 280 cfu | 500 cfu | <10 cfu | 1000 cfu | 485 cfu | 15 cfu | 10 cfu | 7500 cfu | 117500 cfu
5 | – | – | – | Cn1sccc1=O [Ex. B, 2-methyl-4-isothiazolin-3-one] | 1000 cfu | 500 cfu | 10500 cfu | 215 cfu | 6500 cfu | 15000 cfu | 155 cfu | 10 cfu | 115 cfu | <10 cfu
6 | – | – | – | OCCc1ccccc1 [Ex. D, phenethyl alcohol] | 25 cfu | <10 cfu | 91000 cfu | 7500 cfu | 1000 cfu | 2000 cfu | 380 cfu | 1000 cfu | 10 cfu | 1000 cfu

Row | Structure (SMILES) | MIC Values, A. niger (A. niger 16404) | MIC Values, P. aeruginosa (P. aeruginosa 9027) | MIC Values, S. aureus (S. aureus 6538) | Day-7 Plate Count, AN (Aspergillus niger) | Day-14 Plate Count, AN (Aspergillus niger) | Day-7 Plate Count, CA (Candida albicans) | Day-7 Plate Count, SA (Staphylococcus aureus) | Day-14 Plate Count, SA (Staphylococcus aureus) | Day-14 Plate Count, CA (Candida albicans) | Day-7 Plate Count, EC (Escherichia coli) | Day-14 Plate Count, EC (Escherichia coli) | Day-7 Plate Count, PA (Pseudomonas aeruginosa) | Day-14 Plate Count, PA (Pseudomonas aeruginosa)
7 | Cn1sccc1=O [MI, 2-methyl-4-isothiazolin-3-one] | 0.1% | 0.008% | 0.1% | – | – | – | – | – | – | – | – | – | –

Source: patent US8367079B2, “Liquid preservative compositions” (Rhodia Operations, priority 2008, dated 2013)
